Counter-ions that a name gives are not always drawn.
Tested on: Her2 receptor expression at the surface of SKBr3 cells
Test: phenotypic SKBr3/HER2 cell test (Her2 surface expression by flow cytometry)
Type: cell-based
Conditions: Homo sapiens, SK-BR-3, 24 h incubation, inhibition of Her2 expression
Description: The cellular activity of the compounds can in particular be evaluated by means of the phenotypic “SKBr3/HER2” cell test described below:
The SKBr3 […] adenocarcinoma cells, overexpressing the Her2 tyrosine kinase receptor, originate from the ATCC (HTB-30) and are cultured in McCoy's 5A medium supplemented with 10% FBS and 1% L-glutamine.
The cells are seeded in 12-well plates at a proportion of 125 000 cells per well in 1 ml of complete medium. The following day, the products are added at varying concentrations. After incubation for 24 h, the cells are trypsinized, washed with PBS and incubated with 100 ng of anti-Her2 antibody coupled to PE (Phycoerythrin) (BD 340552) for 30 minutes at 4° C. in the dark. The fluorescence due to the expression of the Her2 receptor at the surface of the cells is then read using a FACS Calibur flow cytometer (Becton-Dickinson). The percentage inhibition of Her2 expression as a function of the concentrations of product tested is fitted by the nonlinear regression technique (XLfit, equation 205) in order to measure an IC50 for each product.

Row | SMILES | IC50 [nM]
1 | NC(=O)c1ccc(-n2c3ccccc3c3c(-c4nc5ccc(F)cc5[nH]4)cccc32)cc1N[C@@H]1CN2CCC1CC2 [Example 99, 2-{(S)-(1-azabicyclo[2.2.2]oct-3-yl)amino}-4-[4-(6-fluoro-1H-benzimidazol-2-yl)-9H-carbazol-9-yl]benzamide] | < 1000
2 | CN1CCC(O)(CNc2cc(-n3c4ccccc4c4c(-c5nc6ccc(F)cc6[nH]5)cccc43)ccc2C(N)=O)CC1 [Example 102, [4-(6-fluoro-1H-benzimidazol-2-yl)-9H-carbazol-9-yl]-2-[(4-hydroxy-1-methylpiperidin-4-ylmethyl)amino]benzamide] | 1000 to 10000
3 | NC(=O)c1ccc(-n2c3ccccc3c3c(-c4cnc5ccccc5c4)cccc32)cc1N[C@H]1CN2CCC1CC2 [Example 108, 2-((R)-(1-azabicyclo[2.2.2]oct-3-yl)amino)-4-[4-(quinolin-3-yl)-9H-carbazol-9-yl]benzamide] | < 1000
4 | Cn1cnc(CCNc2cc(-n3c4ccccc4c4c(-c5nc6ccc(F)cc6[nH]5)cccc43)ccc2C(N)=O)c1 [Example 117, 4-[4-(6-fluoro-1H-benzimidazol-2-yl)-9H-carbazol-9-yl]-2-[(1-methyl-1H-imidazol-4-yl)ethylamino]benzamide] | < 1000
5 | Cn1cc(CNc2cc(-n3c4ccccc4c4c(-c5cnc6ccccc6c5)cccc43)ccc2C(N)=O)cn1 [Example 119, 2-[(1-methyl-1H-pyrazol-4-yl)methylamino]-4-[4-(quinolin-3-yl)-9H-carbazol-9-yl]benzamide] | < 1000
6 | NC(=O)c1ccc(-n2c3ccccc3c3c(-c4cnc5ccccc5c4)cccc32)cc1NCC1(O)CC1 [Example 121, 4-[4-(quinolin-3-yl)-9H-carbazol-9-yl]-2-[(1-hydroxycyclopropan-1-yl)methylamino]benzamide] | < 1000
7 | CN1C(C)(C)CC(Nc2cc(-n3c4ccccc4c4c(-c5cnc6ccccc6c5)cccc43)cnc2C(N)=O)CC1(C)C [Example 122] | < 1000
8 | CC(C)(C)OC(=O)N1CCC(Nc2cc(-n3c4ccccc4c4c(-c5cnc6ccccc6c5)cccc43)ccc2C(N)=O)CC1 [Example 123] | 1000 to 10000
9 | NC(=O)c1ccc(-n2c3ccccc3c3c(-c4cnc5ccccc5c4)cccc32)cc1NC1CCNCC1 [Example 124, 2-(piperidin-4-ylamino)-4-[4-(quinolin-3-yl)-9H-carbazol-9-yl]benzamide hydrochloride] | < 1000
10 | CC(C)(O)CCNc1cc(-n2c3ccccc3c3c(-c4ccc(C#N)nc4)cccc32)ccc1C(N)=O [Example 125, 4-[4-(6-cyanopyridin-3-yl)-9H-carbazol-9-yl]-2-[(3-hydroxy-3-methylbutyl)amino]benzamide] | < 1000
11 | CN1C(C)(C)CC(Nc2cc(-n3c4ccccc4c4c(-c5ccc(C#N)nc5)cccc43)ccc2C(N)=O)CC1(C)C [Example 127, 4-[4-(6-cyanopyridin-3-yl)-9H-carbazol-9-yl]-2-[(1,2,2,6,6-pentamethylpiperidin-4-yl)amino]benzamide] | < 1000
12 | NCC(=O)O[C@H]1CC[C@H](Nc2cc(-n3c4ccccc4c4c(-c5cnc6ccccc6c5)cccc43)cnc2C(N)=O)CC1 [Example 128, aminoacetic acid 4-trans-{[2-carbamoyl-5-(quinolin-3-yl)-9H-carbazol-9-yl]pyridin-3-ylamino}cyclohexyl ester] | < 1000
13 | NC(=O)c1ncc(-n2c3ccccc3c3c(-c4cnc5ccccc5c4)cccc32)cc1NCCF [Example 129, 3-(2-fluoroethylamino)-5-[4-(quinolin-3-yl)-9H-carbazol-9-yl]pyridine-2-carboxamide] | < 1000
14 | CC1(C)CC(Nc2cc(-n3c4ccccc4c4c(-c5cnc6ccccc6c5)cccc43)cnc2C(N)=O)CC(C)(C)N1 [Example 132, 5-[4-(quinolin-3-yl)-9H-carbazol-9-yl)-3-(2,2,6,6-tetramethylpiperidin-4-ylamino)pyridine-2-carboxamide] | 1000 to 10000
15 | NC(=O)c1ncc(-n2c3ccccc3c3c(-c4cnc5ccccc5c4)cccc32)cc1NCCc1ccccn1 [Example 133, 3-[(2-pyridin-2-yl)ethylamino)-5-[4-(quinolin-3-yl)-9H-carbazol-9-yl]pyridine-2-carboxamide] | < 1000

Other lines, results leading:

Row | IC50 [nM] | SMILES
16 | < 1000 | CN1CCC(O)(CNc2cc(-n3c4ccccc4c4c(-c5cnc6ccccc6c5)cccc43)ccc2C(N)=O)CC1 [Example 103, 2-[(4-hydroxy-1-methylpiperidin-4-ylmethyl)-amino]-[4-(quinolin-3-yl)-9H-carbazol-9-yl]benzamide]
17 | < 1000 | NC(=O)c1ccc(-n2c3ccccc3c3c(-c4nc5ccc(F)cc5[nH]4)cccc32)cc1NCc1cccnc1 [Example 104, 4-[4-(6-fluoro-1H-benzimidazol-2-yl)-9H-carbazol-9-yl]-2-[(pyridin-3-ylmethyl)amino]benzamide]
18 | < 1000 | NC(=O)c1ccc(-n2c3ccccc3c3c(-c4cnc5ccccc5c4)cccc32)cc1NCc1cccnc1 [Example 105, 2-[(pyridin-3-ylmethyl)amino]-4-[4-(quinolin-3-yl)-9H-carbazol-9-yl]benzamide]
19 | < 1000 | NC(=O)c1ccc(-n2c3ccccc3c3c(-c4nc5ccc(F)cc5[nH]4)cccc32)cc1NCCc1cccnc1 [Example 106, 4-[4-(6-fluoro-1H-benzimidazol-2-yl)-9H-carbazol-9-yl]-2-[2-(pyridin-3-yl)-ethylamino]benzamide]
20 | < 1000 | NC(=O)c1ccc(-n2c3ccccc3c3c(-c4cnc5ccccc5c4)cccc32)cc1NCCc1cccnc1 [Example 107, 2-[2-(pyridin-3-yl)ethylamino]-4-[4-(quinolin-3-yl)-9H-carbazol-9-yl]benzamide]
21 | < 1000 | NC(=O)c1ccc(-n2c3ccccc3c3c(-c4cnc5ccccc5c4)cccc32)cc1NC1CCCC(O)C1 [Example 109, 2-(3(R,S)-hydroxycyclohexyl-1(R,S)-amino)-4-[4-(quinolin-3-yl)-9H-carbazol-9-yl]benzamide]
22 | < 1000 | Cn1cnc(CNc2cc(-n3c4ccccc4c4c(-c5nc6ccc(F)cc6[nH]5)cccc43)ccc2C(N)=O)c1 [Example 110, 4-[4-(6-fluoro-1H-benzimidazol-2-yl)-9H-carbazol-9-yl]-2-[(1-methyl-1H-imidazol-4-yl)methylamino]benzamide]
23 | < 1000 | NC(=O)c1ccc(-n2c3ccccc3c3c(-c4nc5ccc(F)cc5[nH]4)cccc32)cc1NCC1(O)CCCC1 [Example 111, 4-[4-(6-fluoro-1H-benzimidazol-2-yl)-9H-carbazol-9-yl]-2-[(1-hydroxycyclopentan-1-yl)methylamino]benzamide]
24 | < 1000 | NC(=O)c1ccc(-n2c3ccccc3c3c(-c4cnc5ccccc5c4)cccc32)cc1NC1CCOCC1 [Example 113]
25 | < 1000 | NC(=O)c1ccc(-n2c3ccccc3c3c(-c4nc5ccc(F)cc5[nH]4)cccc32)cc1NCC1(O)CC1 [Example 114, 4-[4-(6-fluoro-1H-benzimidazol-2-yl)-9H-carbazol-9-yl]-2-[(1-hydroxycyclopropan-1-yl)methylamino]benzamide]
26 | < 1000 | Cn1cc(CNc2cc(-n3c4ccccc4c4c(-c5nc6ccc(F)cc6[nH]5)cccc43)ccc2C(N)=O)cn1 [Example 115, 4-[4-(6-fluoro-1H-benzimidazol-2-yl)-9H-carbazol-9-yl]-2-[(1-methyl-1H-pyrazol-4-yl)methylamino]benzamide]
27 | < 1000 | NC(=O)c1ncc(-n2c3ccccc3c3c(-c4cnc5ccccc5c4)cccc32)cc1NC1CCOCC1 [Example 116]

From patent US8309721B2, “HSP90 inhibitory carbazole derivatives, compositions containing same and use thereof” (Sanofi, priority 2008, dated 2012)
